How the values were obtained:
[1] = AUC (0 to t) in Sprague-Dawley rat at 100 mg/kg, po measured up to 24 hrs by LC-MS/MS analysis; format: ADME, organism-based; parameters: dose 100 mg/kg, time < 24 hr, route oral; conditions: in vivo
HK-2 [2] = assay: Induction of apoptosis in human HK2 cells assessed as presence of apoptotic bodies at 25 to 100 uM measured after 72 hrs by Hoechst 33342 staining based fluorescence assay; format: cell-based; conditions: hk-2, 72 h
HK-2 [3] = assay: Induction of mitochondrial membrane dysfunction in human HK2 cells assessed as effect mitochondrial membrane potential at 100 uM after 72 hrs by JC-1 staining based flow cytometry; format: cell-based; conditions: hk-2, 72 h
[4] = Selectivity index, ratio of CC50 for cytotoxicity against human HepG2.2.15 cells to EC50 for HBV infected in human HepG2.2.15 cells; format: toxicity, cell-based; conditions: read-out: Ratio CC50/EC50
HK-2 [5] = assay: Nephrotoxicity in human HK2 cells assessed as decrease in cell apoptosis at 25 to 100 uM measured after 72 hrs by Hoechst 33342 staining based fluorescence assay relative to ADV; format: toxicity; parameters: scale not given: the % may be the effect or the level left; conditions: hk-2, 72 h
Hepatitis B virus = assay: Antiviral activity against Hepatitis B virus infected in human HepG2.2.15 cells assessed as inhibition of viral DNA synthesis incubated for 2 days followed by replacement of fresh medium containing compound and measured at day 10 by RT-PCR analysis; format: functional, organism-based
HK-2 [6] = assay: Induction of apoptosis in human HK2 cells assessed as early apoptotic cells at 100 uM measured after 72 hrs by Annexin V-FITC/propidium iodide staining based flow cytometry (reference value: 8.1%); format: cell-based; conditions: hk-2, 72 h
[7] = molecular target: T1, OAT1 (solute carrier family 22 member 6) (Homo sapiens, UniProt Q4U2R8); assay: Safety index, ratio of Adefovir dipivoxil IC50 to compound IC50 for human OAT1 expressed in HEK293 cells; format: ADME, cell-based; conditions: read-out: Ratio IC50
T1 sequence (Q4U2R8 whole entry): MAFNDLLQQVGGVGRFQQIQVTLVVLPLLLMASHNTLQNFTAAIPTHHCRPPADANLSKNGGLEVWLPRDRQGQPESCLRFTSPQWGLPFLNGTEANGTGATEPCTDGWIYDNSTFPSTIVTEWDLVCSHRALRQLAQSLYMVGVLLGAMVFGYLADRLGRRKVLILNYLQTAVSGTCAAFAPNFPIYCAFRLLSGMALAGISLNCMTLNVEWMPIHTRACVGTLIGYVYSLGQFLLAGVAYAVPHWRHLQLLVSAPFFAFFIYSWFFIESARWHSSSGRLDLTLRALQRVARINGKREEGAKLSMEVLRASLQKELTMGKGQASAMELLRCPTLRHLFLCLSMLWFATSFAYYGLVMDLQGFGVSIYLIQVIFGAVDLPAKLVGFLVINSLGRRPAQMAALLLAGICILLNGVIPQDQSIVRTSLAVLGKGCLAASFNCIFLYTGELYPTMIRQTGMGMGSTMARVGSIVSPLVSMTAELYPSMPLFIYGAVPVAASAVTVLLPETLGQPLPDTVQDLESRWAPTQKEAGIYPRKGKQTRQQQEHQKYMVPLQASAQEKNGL

[8] = Potency index, ratio of ADV drug concentration to compound concentration in mouse liver measured at 24 hrs; format: ADME, tissue-based; conditions: in vivo
[9] = Potency index, ratio of ADV drug concentration to compound concentration in mouse liver measured at 60 mins; format: ADME, tissue-based; conditions: in vivo, 1 h
[10] = Drug distribution in mouse liver at 5.47 mg/kg, po measured at 24 hrs by LC-MS/MS analysis; format: ADME, organism-based; conditions: read-out: Drug uptake
[11] = Drug distribution in mouse liver at 5.47 mg/kg, po measured at 30 mins by LC-MS/MS analysis; format: ADME, organism-based; conditions: read-out: Drug uptake
[12] = Drug distribution in mouse liver at 5.47 mg/kg, po measured at 6 hrs by LC-MS/MS analysis; format: ADME, organism-based; conditions: read-out: Drug uptake
[13] = Potency index, ratio of ADV drug concentration to compound concentration in mouse liver measured at 3 hrs; format: ADME, tissue-based; conditions: in vivo
HK-2 [14] = assay: Cytotoxicity against human HK2 cells assessed as cell viability at 25 to 100 uM after 72 hrs by MTT assay relative to control; format: cell-based; conditions: hk-2, 72 h
HEK293 [15] = assay: Substrate activity in human HEK293 cells harboring pEGFP-N1 empty vector assessed as compound uptake measured at 5 to 40 mins by UPLC-MS/MS method; format: ADME, cell-based
[16] = Volume of distribution in Sprague-Dawley rat at 100 mg/kg, po measured up to 24 hrs by LC-MS/MS analysis; format: ADME, organism-based; conditions: in vivo
HEK293 [17] = assay: Cytotoxicity against human HEK293 cells harboring pEGFP-N1 empty vector assessed as reduction in cell viability after 1 hr by MTT assay; format: cell-based; conditions: hek293, 1 h
HK-2 [18] = assay: Induction of apoptosis in human HK2 cells assessed as nuclear pyknosis at 25 to 100 uM measured after 72 hrs by Hoechst 33342 staining based fluorescence assay; format: cell-based; conditions: hk-2, 72 h
[19] = Potency index, ratio of ADV drug concentration to compound concentration in mouse liver measured at 6 hrs; format: ADME, tissue-based; conditions: in vivo
HK-2 [20] = assay: Induction of apoptosis in human HK2 cells assessed as induction of cleaved caspase 3 levels at 25 to 100 uM after 72 hrs by Western blot analysis; format: cell-based; conditions: hk-2, 72 h
HEK293 [21] = assay: Cytotoxicity against human HEK293 cells expressing OAT1 assessed as reduction in cell viability after 1 hr by MTT assay; format: ADME, cell-based; conditions: hek293, 1 h
HK-2 [22] = assay: Induction of apoptosis in human HK2 cells assessed as dense staining at 25 to 100 uM measured after 72 hrs by Hoechst 33342 staining based fluorescence assay; format: cell-based; conditions: hk-2, 72 h
HK-2 [23] = assay: Induction of apoptosis in human HK2 cells assessed as early apoptotic cells at 50 uM measured after 72 hrs by Annexin V-FITC/propidium iodide staining based flow cytometry (reference value: 8.1%); format: cell-based; conditions: hk-2, 72 h
HK-2 [24] = assay: Induction of apoptosis in human HK2 cells assessed as early apoptotic cells at 25 uM measured after 72 hrs by Annexin V-FITC/propidium iodide staining based flow cytometry (reference value: 8.1%); format: cell-based; conditions: hk-2, 72 h
[25] = molecular target: T2, Solute carrier family 22 member 6 (Homo sapiens, UniProt Q4U2R8); assay: Inhibition of human OAT1 expressed in HEK293 cells assessed as P-amino hippuric acid uptake inhibition incubated for 10 mins by UPLC-MS/MS method; format: ADME, cell-based
T2 sequence (Q4U2R8 whole entry): T1 sequence (Q4U2R8 whole entry)

[26] = Drug distribution in mouse liver at 5.47 mg/kg, po measured at 3 hrs by LC-MS/MS analysis; format: ADME, organism-based; conditions: read-out: Drug uptake
HepG2 2.2.15 = assay: Cytotoxicity against human HepG2.2.15 cells assessed as reduction in cell viability incubated for 12 hrs followed by replacement of fresh medium containing compound and measured after 2 days by CCK-8 assay; format: functional
HK-2 [27] = assay: Induction of apoptosis in human HK2 cells assessed as increase in Bax/Bcl2 ratio at 25 to 100 uM after 72 hrs by Western blot analysis; format: cell-based; conditions: hk-2, 72 h
[28] = Potency index, ratio of ADV drug concentration to compound concentration in mouse liver measured at 30 mins; format: ADME, tissue-based; conditions: in vivo, 0.5 h
[29] = molecular target: T2, Solute carrier family 22 member 6; assay: Substrate activity at human OAT1 expressed in HEK293 cells harboring pEGFP assessed as compound uptake measured after 20 mins by UPLC-MS/MS method; format: ADME, cell-based; conditions: hek293, 20 min
[30] = Drug distribution in mouse liver at 5.47 mg/kg, po measured at 60 mins by LC-MS/MS analysis; format: ADME, organism-based; conditions: read-out: Drug uptake

SMILES: CC(C)C[C@@H](N)C(=O)OCCCOP(=O)(COCCn1cnc2c(N)ncnc21)OCCCOC(=O)CC[C@@H](C)[C@H]1CC[C@H]2[C@@H]3[C@@H](O)C[C@@H]4C[C@H](O)CC[C@]4(C)[C@H]3CC[C@]12C (some centres not stated)
- AUCt [1]: 4645.705 µg/L/h
- Activity (HK-2 [2]): Non-Toxic
- Activity (HK-2 [3]): Non-Toxic
- selectivity ratio [4]: 1060
- Activity (HK-2 [5]): 37.4%
- EC50 (Hepatitis B virus): 0.42 µM
- Activity (HK-2 [6]): 5.9%
- selectivity ratio [7]: 21
- Ratio [8]: 8.8
- Ratio [9]: 6.5
- concentration at 24 h [10]: 695 ng/g
- concentration at 0.5 h [11]: 305 ng/g
- concentration at 6 h [12]: 721 ng/g
- Ratio [13]: 3.4
- Activity (HK-2 [14]): Non-Toxic
- Activity (HEK293 [15]): < 60 pmol/min/mg
- Vd [16]: 78.716 L/kg
- Activity (HEK293 [17]): Non-Toxic
- Activity (HK-2 [18]): Non-Toxic
- Ratio [19]: 4.8
- Activity (HK-2 [20]): Non-Toxic
- Activity (HEK293 [21]): Non-Toxic
- Activity (HK-2 [22]): Non-Toxic
- Activity (HK-2 [23]): 6.1%
- Activity (HK-2 [24]): 9.7%
- IC50 [25]: 286 µM
- concentration at 3 h [26]: 1160 ng/g
- CC50 (HepG2 2.2.15): 446 µM
- Activity (HK-2 [27]): Non-Toxic
- Ratio [28]: 4.2
- Activity [29]: < 60 pmol/min/mg
- concentration at 1 h [30]: 1070 ng/g
